From patent US9045390B2, “Haloalkylmethyleneoxyphenyl-substituted ketoenols” (Bayer CropScience AG, priority 2009, dated 2015) come the findings set out here.

Each structure is given as a SMILES string. Like-named read-outs stand apart in the source and are kept apart here.

The test system of data set [1] is cereals. As to the kind of experiment: Container trials with cereals in a greenhouse, mefenpyr 1 day before herbicide application. The class given is in vivo. On the procedure:
(§1) Seeds of monocotyledonous and dicotyledonous weed and crop plants are placed in sandy loam in wood fibre pots, covered with soil and cultivated in a greenhouse under good growth conditions. Two to three weeks after sowing, the test plants are treated at the one-leaf stage. The test compounds, formulated as wettable powders (WP), are sprayed onto the green parts of the plants in different dosages with a water application rate of 600 l/ha (converted), with 0.2% added wetting agent. After the test plants have been kept in the greenhouse under optimal growth conditions for about three weeks, the effect of the preparations is assessed visually by comparison to untreated controls (herbicidal effect in per cent: 100% effect=the plants have died, 0% effect=like control plants).
(§2) If there is to be an additional test as to whether safeners can improve the plant compatibility of test substances in the case of crop plants, the following options are used for applying the safeners: • Seeds of the crop plants are, before sowing, dressed with safener substance (the amount of safener stated in per cent, based on the weight of the seed) • Before the application of the test substances, the crop plants are sprayed with the safener at a certain application rate per hectare (usually one day before the application of the test substances) • The safener is applied together with the test substance as a tankmix (the amount of safener is stated in g/ha or as a ratio, based on the herbicide).
Container Trials with Cereals in a Greenhouse
Mefenpyr 1 Day Before Herbicide Application

Another data set concerns Maize (Aventura). As to the kind of experiment: Container tests with maize-soya-cotton in a greenhouse, cyprosulfamide 1 day before herbicide application. The class given is in vivo. How it is done:
as §1, §2
(§3) Container Tests with Maize-Soya-Cotton in a Greenhouse
(§4) Cyprosulfamide 1 Day Before Herbicide Application

Data set [2] relates to cereals. As to the kind of experiment: Container trials with cereals in a greenhouse, mefenpyr 1 day before herbicide application. The class given is in vivo. Conditions: 10 days after application, 12.5 g a.i./ha.
The subject of data set [3] is green peach aphid (Myzus persicae). Briefly: Myzus test (MYZUPE spray treatment). The class given is in vivo. The following applies: application rate 20 g/ha, Chinese cabbage leaf discs. How it is done: Myzus Test (MYZUPE Spray Treatment)
To prepare an appropriate active ingredient preparation, 1 part by weight of active ingredient is mixed with the stated amounts of solvent and emulsifier, and the concentrate is diluted with emulsifier-containing water to the desired concentration.
Discs of Chinese cabbage (Brassica pekinensis) infected by all stages of the green peach aphid (Myzus persicae) are sprayed with an active ingredient preparation of the desired concentration.
After the desired time, the effect in % is determined. 100% means that all of the aphids have been killed; 0% means that none of the aphids have been killed.

The test system is the same in data set [4]. Briefly: Enhancement of activity by ammonium/phosphonium salts with penetration enhancers: Myzus persicae test. In kind it is in vivo. The following applies: 0.8 ppm. On the procedure: Enhancement of Activity by Ammonium/Phosphonium Salts in Combination with Penetration Enhancers Myzus persicae Test [table] To prepare an appropriate active ingredient preparation, 1 part by weight of active ingredient is mixed with the stated amount of solvent and emulsifier, and the concentrate is diluted to the desired concentration with water. […] Bell pepper plants (Capsicum annuum) heavily infested by the green peach aphid (Myzus persicae) are treated by spraying to runoff point with the active ingredient preparation of the desired concentration.

Data set [5] deals with cotton aphid (Aphis gossypii). Briefly: Aphis gossypii test (with ammonium salts and penetration enhancers). In kind it is in vivo. The following applies: for Kill rate/% after 6 days: active ingredient alone, cotton plants. On the procedure: Aphis gossypsi Test [table] To prepare an appropriate active ingredient preparation, 1 part by weight of active ingredient is mixed with the stated amounts of solvent and emulsifier, and the concentrate is diluted to the desired concentration with emulsifier-containing water. […] Cotton plants (Gossypium hirsutum) heavily infested by the cotton aphid (Aphis gossypii) are treated by spraying to runoff point with the active ingredient preparation of the desired concentration.

A further data set relates to Maize (Arsenal). Briefly: Container tests with maize-soya-cotton in a greenhouse, cyprosulfamide 1 day before herbicide application. The class given is in vivo. How it is done: as §1, §2, §3, §4
Another data set relates to Maize (Cecilia). The class given is in vivo. On the procedure: as §1, §2, §3, §4
Data set [6] in a line: log P determination by HPLC/LC-MS on reversed-phase column (C 18). The class given is physicochemical. The following applies: pH 2.7, 0.1% aqueous formic acid and acetonitrile; for chromatographic logP: reversed-phase column (C 18), pH 2.7, LC-MS acidic range, read-out: log P (HCOOH). How it is done: The log P values reported in the above tables and preparation examples are determined according to EEC Directive 79/831 Annex V.A8 by HPLC (High Performance Liquid Chromatography) on a reversed-phase column (C 18). Temperature: 43° C.
The determination is effected in the acidic range at pH 2.3 with 0.1% aqueous phosphoric acid and acetonitrile as eluent; linear gradient from 10% acetonitrile to 95% acetonitrile.
The determination by LC-MS in the acidic range is effected at pH 2.7 with 0.1% aqueous formic acid and acetonitrile (contains 0.1% formic acid) as the eluent; linear gradient from 10% acetonitrile to 95% acetonitrile.
The determination by LC-MS in the neutral range is effected at pH 7.8 with 0.001 molar aqueous ammonium hydrogen carbonate solution and acetonitrile as the eluent; linear gradient from 10% acetonitrile to 95% acetonitrile.
The calibration is effected with unbranched alkane-2-ones (with 3 to 16 carbon atoms), the log P values of which are known (determination of log P values on the basis of the retention times by linear interpolation between two successive alkanones).

Setting [7] is: Summer barley, 28 days after application, 12.5 g a.i./ha.
The mark [8] stands for this setting: Summer barley, 28 days after application, 25 g a.i./ha.
Where [9] appears, read: 28 days after application, 12.5 g a.i./ha.
The mark [10] stands for this setting: 28 days after application, 25 g a.i./ha.
[11] abbreviates: 28 days after application, 50 g a.i./ha.
Where [12] appears, read: 28 days after application, 100 g a.i./ha.
[13] abbreviates: Summer barley, 28 days after application, 50 g a.i./ha.

Turning to `CCOC1CCCC2(CC1)NC(=O)C(c1c(C)cc(OCC(F)(F)F)cc1CC)=C2O` (stereo not shown) [Example I-1-a-5], the “Summer barley observed (%)” value came out at 65% in the data set with cereals [1] (setting [7]) and 95% in the data set with cereals [1] (setting [8]). Besides, the “Summer wheat observed (%)” value in the data set on cereals [1] (setting [9]) is 65%.

Take `CCc1cc(OCC(F)(F)F)cc(C)c1C1=C(O)C2(CCC3(CC2)OCCO3)NC1=O` [Example I-1-a-6]: the “Summer wheat observed (%)” value with cereals [1] (setting [9]) amounted to 70%; in the data set on cereals [1] (setting [10]), 85%.

Regarding `CCc1cc(OCC(F)(F)F)cc(C)c1C1=C(O)C2(CCC3(CC2)OCC(C)O3)NC1=O` (stereo not shown) [Example I-1-a-7], the “Summer wheat observed (%)” value in the data set with cereals [1] (setting [9]) was found to be 50%; in the data set on cereals [1] (setting [10]), 50%; in the data set with cereals [1] (setting [11]), 70%; in the data set with cereals [1] (setting [12]), 70%.

Consider `CCc1cc(OCC(F)(F)F)cc(C)c1C1=C(O)C2(CCC(C)CC2)NC1=O` (stereo not shown) [Example I-1-a-8], for which the entries for the “Summer wheat observed (%)” value in the data set with cereals [1] (setting [9]) and in the data set with cereals [2] were 98% and 65%, respectively. For the same molecule, the “28 days after application Maize (Aventura) observed (%)” value came out at 35% in the data set on Maize (Aventura) (12.5 g a.i./ha), 60% with Maize (Aventura) (25 g a.i./ha) and 70% with Maize (Aventura) (50 g a.i./ha).

For the molecule `CCCOC1CCCC2(C1)NC(=O)C(c1c(C)cc(OCC(F)(F)F)cc1CC)=C2O` (stereo not shown) [Example I-1-a-14], the “Summer wheat observed (%)” value with cereals [1] (setting [9]) is given as 93%; in the data set on cereals [1] (setting [10]) it was 99%; with cereals [1] (setting [11]), 100%.

As to `CCCCOC1CCCC2(C1)NC(=O)C(c1c(C)cc(OCC(F)(F)F)cc1CC)=C2O` (stereo not shown) [Example I-1-a-15], the figures for the “Summer barley observed (%)” value in the data set on cereals [1] (setting [7]), in the data set with cereals [1] (setting [8]) and in the data set with cereals [1] (setting [13]) were 70%, 85% and 97%, respectively. Also, the “Summer wheat observed (%)” value in the data set on cereals [1] (setting [9]) was 10%; in the data set on cereals [1] (setting [10]), 30%; in the data set on cereals [1] (setting [11]), 40%; in the data set with cereals [1] (setting [12]), 60%.

For `COCC1CCC2(CC1)NC(=O)C(c1c(C)cc(OCC(F)(F)F)cc1C)=C2O` (stereo not shown) [Example I-1-a-17], the “Summer barley observed (%)” value with cereals [1] (setting [13]) is listed as 40%; in the data set with cereals [1] (Summer barley, 28 days after application, 100 g a.i./ha), 80%; in the data set on cereals [1] (Summer barley, 28 days after application, 200 g a.i./ha) it was 95%.

For `CCCOC1CCCC2(C1)NC(=O)C(c1c(C)cc(OCC(F)(F)F)cc1C)=C2O` (stereo not shown) [Example I-1-a-19], the “Summer barley observed (%)” value in the data set on cereals [1] (setting [8]) is 70%. The “Summer wheat observed (%)” value in the data set with cereals [1] (setting [9]) turned out to be 10%; in the data set with cereals [1] (setting [10]), 20%; with cereals [1] (setting [11]) it was 70%; with cereals [1] (setting [12]), 85%.

`Cc1cc(OCC(F)(F)F)cc(C)c1C1=C(O)C2CCCCN2C1=O` (stereo not shown) [Example I-1-a-20]: the “effect in % (aphids killed)” value in data set [3] is on record as not below 80%.

`COC1CCC2(CC1)NC(=O)C(c1c(C)cc(OCC(F)(F)F)cc1C)=C2O` (stereo not shown) [Example I-1-a-25]: the figures for the “Kill rate/% after 6 days +AS (1000 ppm)” value in data set [4] (+AS (1000 ppm)) and in data set [5] (0.8 ppm) were 0% and 35%, respectively. The “Kill rate/% after 6 days +RME (1000 ppm)” value in data set [4] (+RME (1000 ppm)) is listed as 40%; in data set [5] (0.8 ppm) it was 20%. Moreover, the entries for the “Kill rate/% after 6 days +RME +AS (1000 ppm each)” value (“Kill rate/% … (1000 ppm each)” for short) in data set [4] (+RME +AS (1000 ppm each)) and in data set [5] (0.8 ppm) were 55% and 85%, respectively. The “Kill rate/% after 6 days” value turned out to be 0% in [4] (active ingredient alone, bell pepper plants) and 0% in data set [5] (0.8 ppm). The figures for the “Summer wheat observed (%)” value in the data set on cereals [1] (setting [9]) and in the data set on cereals [2] were 70% and 40%, respectively. Moreover, the “28 days after application Maize (Arsenal) observed (%)” value in the data set on Maize (Arsenal) (12.5 g a.i./ha) came out at 5%; in the data set with Maize (Arsenal) (25 g a.i./ha), 15%; with Maize (Arsenal) (50 g a.i./ha), 75%; in the data set with Maize (Arsenal) (100 g a.i./ha), 100%. For the same molecule, the “28 days after application Maize (Cecilia) observed (%)” value in the data set with Maize (Cecilia) (12.5 g a.i./ha) stood at 0%; in the data set on Maize (Cecilia) (25 g a.i./ha) it was 10%; in the data set on Maize (Cecilia) (50 g a.i./ha), 20%; in the data set on Maize (Cecilia) (100 g a.i./ha) it was 35%.

Turning to `COC1CCC2(CC1)NC(=O)C(c1c(C)ccc(OCC(F)(F)F)c1C)=C2O` (stereo not shown) [Example I-1-a-29], in data set [5] (4 ppm), the “Kill rate/% after 6 days +AS (1000 ppm)” value turned out to be 15%, the “Kill rate/% after 6 days +RME (1000 ppm)” value stood at 80%, the “Kill rate/% … (1000 ppm each)” value stood at 95% and the “Kill rate/% after 6 days” value is 10%.

In the case of `Cc1ccc(OCC(F)(F)F)c(C)c1C1=C(O)C2(CCOCC2)NC1=O` [Example I-1-a-31], in data set [5] (4 ppm), the “Kill rate/% after 6 days +AS (1000 ppm)” value was 10%, the “Kill rate/% after 6 days +RME (1000 ppm)” value was 5%, the “Kill rate/% … (1000 ppm each)” value was found to be 35% and the “Kill rate/% after 6 days” value is recorded as 0%.

In the case of `CCc1cc(OCC(F)(F)F)cc(C)c1C1=C(O)C2(CCC(C)(OC)CC2)NC1=O` (stereo not shown) [Example I-1-a-37], the “Summer wheat observed (%)” value in the data set on cereals [1] (setting [9]) turned out to be 70%.

With `CO[C@H]1CC[C@]2(CC1)NC(=O)C(c1c(C)cc(OCC(F)(F)F)cc1C)=C2OC(=O)C(C)C` [Example I-1-b-2], the “Summer barley observed (%)” value in the data set with cereals [1] (in vivo) was found to be 50%.

Take `CCOC(=O)OC1=C(c2c(C)cc(OCC(F)(F)F)cc2C)C(=O)NC12CCCC(OCC)C2` (stereo not shown) [Example I-1-c-2]: the “28 days after application Maize (Arsenal) observed (%)” value with Maize (Arsenal) (25 g a.i./ha) came to 20%; in the data set with Maize (Arsenal) (50 g a.i./ha), 20%; in the data set with Maize (Arsenal) (100 g a.i./ha), 25%. The “28 days after application Maize (Cecilia) observed (%)” value with Maize (Cecilia) (100 g a.i./ha) was found to be 75%.

Turning to `Cc1ccc(OCC(F)(F)F)cc1C1=C(O)C2(CCCC2)OC1=O` [Example I-2-a-1], the “log P (HCOOH)” value in data set [6] (LC-MS acidic range) came to 2.45. In [6], the chromatographic logP is 2.59.

As to `Cc1ccc(OCC(F)(F)F)cc1C1=C(OC(=O)C(C)(C)C)C2(CCCC2)OC1=O` [Example I-2-b-1], the chromatographic logP in data set [6] amounted to 4.69.

On to `CCOC(=O)C1(OC(=O)Cc2c(C)cc(OCC(F)(F)F)cc2C)CCOCC1` [III-1], for which the chromatographic logP in data set [6] was 3.78.

Turning to `Cc1cc(OCC(F)(F)F)cc(C)c1CC(=O)O` [XXXI-1, 2,6-Dimethyl-4-trifluoroethoxyphenylacetic acid], in data set [6], the chromatographic logP was 2.51.
